Test results taken from ChEMBL document CHEMBL5625222, “Design, synthesis, and biological evaluation of 1,6-naphthyridine-2-one derivatives as novel FGFR4 inhibitors for the treatment of colorectal cancer” (Eur J Med Chem, 2023).
The source made the active and inactive calls. The rule behind the calls is not given here.

Assays:
[1] = Toxicity in ICR mouse assessed as change in kidney weight at 60 mg/kg,po administrated for 1 week; type: organism-based; details: in vivo, 168 h, time 1 weeks
HCT-116 [2] = experiment: Antitumor activity against human HCT-116 cells xenografted in BALB/c mouse assessed as chromatin condensation at 20 mg/kg,ip administrated for 2 weeks by hematoxylin and eosin staining based analysis; type: functional, organism-based
HCT-116 [3] = experiment: cells; details: Homo sapiens, HCT-116, 48 h
Description: Antiproliferative activity against human HCT-116 cells assessed as inhibition of cell growth incubated for 48 hrs by MTT assay

[4] = Toxicity in ICR mouse assessed as change in spleen weight at 60 mg/kg,po administrated for 1 week; type: organism-based; details: in vivo, 168 h, time 1 weeks
[5] = Toxicity in BALB/c mouse xenografted with human HCT-116 cells assessed as change in body weight at 10 mg/kg,ip administrated for 2 weeks; type: organism-based; details: in vivo, 336 h
[6] = Toxicity in BALB/c mouse xenografted with human HCT-116 cells assessed as change in spleen weight at 20 mg/kg,ip administrated for 2 weeks; type: organism-based; details: in vivo, 336 h
[7] = Hepatotoxicity in ICR mouse assessed as change in serum ALT level at 60 mg/kg,po administrated for 1 week; type: toxicity, organism-based; details: in vivo, 168 h, time 1 weeks
[8] = Toxicity in ICR mouse assessed as histopathological change in kidney at 60 mg/kg,po administrated for 1 week by hematoxylin and eosin staining analysis; type: organism-based; details: in vivo, 168 h, time 1 weeks
[9] = Toxicity in BALB/c mouse xenografted with human HCT-116 cells assessed as change in liver weight at 20 mg/kg,ip administrated for 2 weeks; type: organism-based; details: in vivo, 336 h
[10] = Toxicity in ICR mouse assessed as histopathological change in liver at 60 mg/kg,po administrated for 1 week by hematoxylin and eosin staining analysis; type: organism-based; details: in vivo, 168 h, time 1 weeks
[11] = Toxicity in ICR mouse assessed as histopathological change in kidney at 20 mg/kg,po administrated for 1 week by hematoxylin and eosin staining analysis; type: organism-based; details: in vivo, 168 h, time 1 weeks
SW480 [12] = experiment: Anti-migration activity in human SW480 cells assessed as change in FAK distribution at 3 to 12 uM by immunofluorescence assay; type: functional, cell-based; details: dose 3-12 µM
RKO [13] = experiment: Anti-migration activity in human RKO cells assessed as downregulation of FAK phosphorylation by Western blotting analysis; type: functional, cell-based
SW480 [14] = experiment: Antiproliferative activity against human SW480 cells assessed as inhibition of colony formation incubated for 2 weeks by crystal violet staining method; type: functional, cell-based
HCT-116 [15] = experiment: Antitumor activity against human HCT-116 cells xenografted in BALB/c mouse assessed as change in cell morphology at 10 mg/kg,ip administrated for 2 weeks by hematoxylin and eosin staining based analysis; type: functional, organism-based
[16] = Toxicity in BALB/c mouse xenografted with human HCT-116 cells assessed as change in serum AST level at 10 mg/kg,ip administrated for 2 weeks; type: organism-based; details: in vivo, 336 h
[17] = Antiproliferative activity against human Intestinal epithelial cell assessed as inhibition of cell growth incubated for 48 hrs by MTT assay; type: toxicity, cell-based; details: human intestinal epithelial cells
[18] = biological target: Fibroblast growth factor receptor 1 (Homo sapiens, UniProt P11362); experiment: Inhibition of FGFR1 (unknown origin) kinase activity
[19] = Toxicity in ICR mouse assessed as change in heart weight at 20 mg/kg,po administrated for 1 week; type: organism-based; details: in vivo, 168 h, time 1 weeks
[20] = Toxicity in BALB/c mouse xenografted with human HCT-116 cells assessed as change in spleen weight at 10 mg/kg,ip administrated for 2 weeks; type: organism-based; details: in vivo, 336 h
[21] = biological target: Fibroblast growth factor receptor 2 (Homo sapiens, UniProt P21802); experiment: Inhibition of FGFR2 (unknown origin) kinase activity
[22] = Toxicity in ICR mouse assessed as change in lung weight at 60 mg/kg,po administrated for 1 week; type: organism-based; details: in vivo, 168 h, time 1 weeks
RKO [23] = experiment: Induction of cell cycle arrest in human RKO cells assessed as downregulation of CDC2 expression at 1.5 to 6 uM by immunoblotting analysis; type: functional, cell-based; details: dose 1.5-6 µM
[24] = Toxicity in BALB/c mouse xenografted with human HCT-116 cells assessed as change in kidney weight at 10 mg/kg,ip administrated for 2 weeks; type: organism-based; details: in vivo, 336 h
RKO [25] = experiment: cells; details: Homo sapiens, 48 h
Description: Antiproliferative activity against human RKO cells assessed as inhibition of cell growth incubated for 48 hrs by MTT assay

[26] = Toxicity in ICR mouse assessed as change in spleen weight at 20 mg/kg,po administrated for 1 week; type: organism-based; details: in vivo, 168 h, time 1 weeks
[27] = Toxicity in ICR mouse assessed as histopathological change in liver at 20 mg/kg,po administrated for 1 week by hematoxylin and eosin staining analysis; type: organism-based; details: in vivo, 168 h, time 1 weeks
HCT-116 [28] = experiment: Anti-migration activity in human HCT-116 cells assessed as change in FAK expression at 3 to 12 uM by Western blotting analysis; type: functional, cell-based; details: dose 3-12 µM
[29] = Toxicity in BALB/c mouse xenografted with human HCT-116 cells assessed as change in heart weight at 10 mg/kg,ip administrated for 2 weeks; type: organism-based; details: in vivo, 336 h
HCT-116 [30] = experiment: Antitumor activity against human HCT-116 cells xenografted in BALB/c mouse assessed as downregulation of FGFR4 signalling pathway in tumor at 20 mg/kg,ip administrated for 2 weeks by Western blotting analysis; type: functional, organism-based
SW480 [31] = experiment: Anti-migration activity in human SW480 cells assessed as upregulation of E-cad expression by Western blotting analysis; type: functional, cell-based
HCT-116 [32] = experiment: Antitumor activity against human HCT-116 cells xenografted in BALB/c mouse assessed as chromatin condensation at 10 mg/kg,ip administrated for 2 weeks by hematoxylin and eosin staining based analysis; type: functional, organism-based
[33] = Hepatotoxicity in ICR mouse assessed as change in serum creatinine level at 60 mg/kg,po administrated for 1 week; type: toxicity, organism-based; details: in vivo, 168 h, time 1 weeks
[34] = Toxicity in BALB/c mouse xenografted with human HCT-116 cells assessed as change in serum creatinine level at 20 mg/kg,ip administrated for 2 weeks; type: organism-based; details: in vivo, 336 h
HCT-116 [35] = experiment: Anti-migration activity in human HCT-116 cells assessed as change in FAK distribution at 3 to 12 uM by immunofluorescence assay; type: functional, cell-based; details: dose 3-12 µM
[36] = Toxicity in ICR mouse assessed as change in kidney weight at 20 mg/kg,po administrated for 1 week; type: organism-based; details: in vivo, 168 h, time 1 weeks
[37] = Hepatotoxicity in ICR mouse assessed as change in serum ALT level at 20 mg/kg,po administrated for 1 week; type: toxicity, organism-based; details: in vivo, 168 h, time 1 weeks
SW480 [38] = experiment: Antiproliferative activity against human SW480 cells assessed as inhibition of cell growth incubated for 48 hrs by EdU staining method; type: functional, cell-based
[39] = Toxicity in BALB/c mouse xenografted with human HCT-116 cells assessed as histopathological change in kidney at 10 mg/kg,ip administrated for 2 weeks by hematoxylin and eosin staining based analysis; type: organism-based; details: in vivo, 336 h
HCT-116 [40] = experiment: Antitumor activity against human HCT-116 cells xenografted in BALB/c mouse assessed as decrease in CD68 expression in tumor tissue at ip administrated for 2 weeks by immunohistochemical analysis; type: functional, organism-based
HCT-116 [41] = experiment: Antitumor activity against human HCT-116 cells xenografted in BALB/c mouse assessed as downregulation of FAK expression in tumor at 20 mg/kg,ip administrated for 2 weeks by Western blotting analysis; type: functional, organism-based
[42] = Toxicity in ICR mouse assessed as change in body weight at 60 mg/kg,po administrated for 1 week; type: organism-based; details: in vivo, 168 h, time 1 weeks

Fibroblast growth factor receptor 1, sequence (P11362 whole entry): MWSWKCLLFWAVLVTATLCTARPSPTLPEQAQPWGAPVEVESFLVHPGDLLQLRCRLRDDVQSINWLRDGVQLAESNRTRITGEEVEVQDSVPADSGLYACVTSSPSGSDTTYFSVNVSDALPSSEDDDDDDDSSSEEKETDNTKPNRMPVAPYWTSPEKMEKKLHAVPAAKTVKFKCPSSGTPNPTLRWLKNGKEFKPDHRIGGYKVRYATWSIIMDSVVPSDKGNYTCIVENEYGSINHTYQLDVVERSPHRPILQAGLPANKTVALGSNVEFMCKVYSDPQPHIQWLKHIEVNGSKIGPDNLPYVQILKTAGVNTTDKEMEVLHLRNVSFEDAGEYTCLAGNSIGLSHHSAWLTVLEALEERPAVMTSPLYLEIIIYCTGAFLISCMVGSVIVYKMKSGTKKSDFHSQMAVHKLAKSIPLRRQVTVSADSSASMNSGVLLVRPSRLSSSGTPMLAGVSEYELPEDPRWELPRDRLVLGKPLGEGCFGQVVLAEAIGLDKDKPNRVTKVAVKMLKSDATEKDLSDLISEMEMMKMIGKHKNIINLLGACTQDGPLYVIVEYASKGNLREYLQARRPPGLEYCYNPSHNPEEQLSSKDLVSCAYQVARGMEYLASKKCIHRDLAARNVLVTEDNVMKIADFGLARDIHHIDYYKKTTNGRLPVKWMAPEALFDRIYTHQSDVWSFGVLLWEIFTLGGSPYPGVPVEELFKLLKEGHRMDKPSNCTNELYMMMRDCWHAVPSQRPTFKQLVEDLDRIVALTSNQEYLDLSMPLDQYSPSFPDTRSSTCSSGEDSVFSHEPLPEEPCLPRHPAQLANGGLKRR
Fibroblast growth factor receptor 2, sequence (P21802 whole entry): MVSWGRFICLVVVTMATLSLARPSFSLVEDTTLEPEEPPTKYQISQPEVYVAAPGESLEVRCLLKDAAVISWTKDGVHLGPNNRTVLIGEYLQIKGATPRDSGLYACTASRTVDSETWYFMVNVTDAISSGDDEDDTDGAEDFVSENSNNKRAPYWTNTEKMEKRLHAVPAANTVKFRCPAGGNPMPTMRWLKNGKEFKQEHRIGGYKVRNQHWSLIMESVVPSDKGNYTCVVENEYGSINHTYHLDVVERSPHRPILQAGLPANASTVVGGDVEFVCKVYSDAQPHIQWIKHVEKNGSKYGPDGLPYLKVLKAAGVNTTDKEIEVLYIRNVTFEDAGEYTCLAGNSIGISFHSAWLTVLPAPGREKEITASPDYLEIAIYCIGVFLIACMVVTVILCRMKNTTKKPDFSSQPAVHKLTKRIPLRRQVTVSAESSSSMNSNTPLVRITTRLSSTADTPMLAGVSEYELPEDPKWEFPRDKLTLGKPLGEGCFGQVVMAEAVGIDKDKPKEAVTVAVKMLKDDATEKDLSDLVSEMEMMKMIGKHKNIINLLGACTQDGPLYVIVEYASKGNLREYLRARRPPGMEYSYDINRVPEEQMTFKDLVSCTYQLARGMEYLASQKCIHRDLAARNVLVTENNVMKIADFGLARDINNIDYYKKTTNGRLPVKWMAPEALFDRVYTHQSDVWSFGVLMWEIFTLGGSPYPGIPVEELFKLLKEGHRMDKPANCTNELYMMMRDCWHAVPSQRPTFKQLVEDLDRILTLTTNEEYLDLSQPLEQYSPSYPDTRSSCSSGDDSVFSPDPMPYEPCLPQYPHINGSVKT

C=CC(=O)NCCCn1c(=O)c(-c2c(Cl)c(OC)cc(OC)c2Cl)cc2cnc(Nc3c(C)cccc3NC(=O)C=C)cc21
Activity [1]: Non-Toxic
Activity (HCT-116 [2]): Active
IC50 (HCT-116 [3]): 4.24 µM
Activity [4]: Non-Toxic
Activity [5]: Non-Toxic
Activity [6]: Non-Toxic
Activity [7]: Non-Toxic
Activity [8]: Non-Toxic
Activity [9]: Non-Toxic
Activity [10]: Non-Toxic
Activity [11]: Non-Toxic
Activity (SW480 [12]): Active
Activity (RKO [13]): Dose-Dependent Effect
Activity (SW480 [14]): Dose-Dependent Effect
Activity (HCT-116 [15]): Active
Activity [16]: Non-Toxic
IC50 at 48 h [17]: 23.8 µM
IC50 [18]: 643 nM
Activity [19]: Non-Toxic
Activity [20]: Non-Toxic
IC50 [21]: 528 nM
Activity [22]: Non-Toxic
Activity (RKO [23]): Active
Activity [24]: Non-Toxic
IC50 (RKO [25]): 11.6 µM
Activity [26]: Non-Toxic
Activity [27]: Non-Toxic
Activity (HCT-116 [28]): inactive
Activity [29]: Non-Toxic
Activity (HCT-116 [30]): Active
Activity (SW480 [31]): Dose-Dependent Effect
Activity (HCT-116 [32]): Active
Activity [33]: Non-Toxic
Activity [34]: Non-Toxic
Activity (HCT-116 [35]): Active
Activity [36]: Non-Toxic
Activity [37]: Non-Toxic
Activity (SW480 [38]): Dose-Dependent Effect
Activity [39]: Non-Toxic
Activity (HCT-116 [40]): Dose-Dependent Effect
Activity (HCT-116 [41]): Active
Activity [42]: Non-Toxic
